The values below are quoted from earlier work in PMC5731893, “Therapeutic potential of an anti-angiogenic multimodal biomimetic peptide in hepatocellular carcinoma” (Oncotarget, 2017).

One data set deals with HCC. The text has this: Liver cancer is one of the top causes of cancer related mortality in the world and the incidence has been increasing in the US for decades. Surgical resection and/or liver transplantation are the curative options for early diagnosed hepatocellular cancers. However, the prognosis for advanced stages of the disease is dismal owing to a lack of chemotherapeutic options. A series of anti-angiogenic drugs have been undergoing clinical trials for some time but they have not had much success because of drug related toxicity and partly because many cases of HCC are refractory to different ... || Compared to normal liver cells, HCC tumor cells are often associated with the dysregulation of numerous cellular signaling pathways. Expression changes or mutations of growth factor signaling components, specifically c-Met and insulin-like growth factor 1 receptor (IGF1R) are well documented in the pathogenesis of HCC [10]. Overexpression of c-Met and IGF1R is observed in 20-48% or 33% of HCC tumors, respectively, as are increases in the expression of the IGF1R ligand IGF-II [11]. Downstream effectors of insulin receptor substrates 1 (IRS-1) and 2 (IRS-2) have likewise been r ...

For another data set, the system named is HCC cells. An excerpt:
Liver cancer is one of the top causes of cancer related mortality in the world and the incidence has been increasing in the US for decades. Surgical resection and/or liver transplantation are the curative options for early diagnosed hepatocellular cancers. However, the prognosis for advanced stages of the disease is dismal owing to a lack of chemotherapeutic options. A series of anti-angiogenic drugs have been undergoing clinical trials for some time but they have not had much success because of drug related toxicity and partly because many cases of HCC are refractory to different ...

The next data set concerns HCC tumors. The text has this: Angiogenesis is a common feature of many solid tumors and plays a critical role in growth and metastatic progression of HCC. […] Aflibercept speci ... || The dual inhibition of cancer and endothelial cell functions may synergize through the reduction of resistance pathways normally associated with anti-angiogenic therapies. While angiogenesis is important for the exponential growth of cancerous tissue, non-angiogenic processes for tumor vascularization may help bypass the effects of strictly angiogenesis-based therapies. In particular, vessel co-option, or the hijacking of existing vasculature for tumor growth, is observed in models of HCC and has been associated with the diminishing efficacy of extended sorafenib treatment. Tumors from orthoto ...

As to `CNC(=O)c1cc(Oc2ccc(NC(=O)Nc3ccc(Cl)c(C(F)(F)F)c3)cc2)ccn1` [Sorafenib], the side effects result in the data set on HCC (human, in vivo) is “clinically significant”. Also, the “effect on sensitivity to apoptotic stimuli” value in the data set with HCC cells is “sensitize the cells to apoptotic stimuli”. Further, the “effect on HCC proliferation” value with HCC cells (within the S/G2/M phases of the cell cycle) is on record as “slow HCC proliferation”. For the same compound, the “vessel co-option vs angiogenic mechanisms after administration” value in the data set with HCC tumors (orthotopic mouse models of HCC) is “significant preference towards vessel co-option over angiogenic mechanisms”.

Consider `CNC(=O)c1cc(Oc2ccc(NC(=O)Nc3ccc(Cl)c(C(F)(F)F)c3)c(F)c2)ccn1` [regorafenib], for which the “increase of median survival” value with HCC (advanced HCC that progress under sorafenib, phase III) is 3 months.

As for `O=C1NC(=O)[C@@H](c2cn3c4c(cccc24)CCC3)[C@@H]1c1c[nH]c2ccccc12` [tivantinib], in the data set with HCC (phase II, c-Met positive HCC), the “effect on overall survival” value is reported as “significantly improve overall survival”.

Consider “aflibercept: soluble decoy construct containing a fusion of VEGFR1 and VEGFR2 ligand binding domains”, for which the “effect on tumor growth” value in the data set with HCC tumors (several mouse models of HCC) was “inhibit tumor growth”.
